Some test systems named below: HOP-92 NSCLC; MDA-MB-435; OVCAR-8 ovarian; MDA-MB-231 breast; SK-OV-3 ovarian; LOX IMVI melanoma; A549 NSCLC; K-562 leukemia; MCF7 breast; MALME-3M melanoma; SNB-75 CNS.
Assay in all cases: NCI tumour cell line growth inhibition, 48 h

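Protocol summary: plate cells (96-well), add compound at 5 concentrations, incubate 48 h, interpolate endpoints linearly. The concentration for full growth arrest is given as TGI.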 Bounds are passed on as bounds.

Take `O=[N+]([O-])CC(SCc1ccccc1)c1ccc2c(c1)OCO2` (configuration not stated): the TGI turned out to be 21 µM in the experiment on HOP-92 NSCLC; 7.93 µM in the experiment on MDA-MB-435; 19.2 µM with OVCAR-8 ovarian; 25.6 µM in the experiment on MDA-MB-231 breast; 28.6 µM with SK-OV-3 ovarian; 3.39 µM with LOX IMVI melanoma. In addition, the TGI was 21.8 µM in the experiment with A549 NSCLC; 4.19 µM in the experiment with K-562 leukemia; 9.73 µM in the experiment on MCF7 breast; 30.1 µM in the experiment with MALME-3M melanoma; 30.6 µM in the experiment with SNB-75 CNS.
`NC1CC2C3CCC2C1C3=O` (configuration not stated): the TGI with HOP-92 NSCLC, with MDA-MB-435, with OVCAR-8 ovarian, in the experiment with MDA-MB-231 breast, in the experiment with SK-OV-3 ovarian and with LOX IMVI melanoma was over 100 µM each time. The TGI with A549 NSCLC, in the experiment with K-562 leukemia, in the experiment on MCF7 breast, with MALME-3M melanoma and in the experiment on SNB-75 CNS was over 100 µM in each case.
Consider `N[C@@H]1c2c(Br)sc(Br)c2[C@H](O)[C@@H]1O`, for which the TGI with HOP-92 NSCLC, in the experiment on MDA-MB-435, in the experiment on OVCAR-8 ovarian, with MDA-MB-231 breast, in the experiment with SK-OV-3 ovarian and in the experiment with LOX IMVI melanoma was over 100 µM in each case. In addition, the TGI with A549 NSCLC, with K-562 leukemia, with MCF7 breast, in the experiment with MALME-3M melanoma and with SNB-75 CNS was over 100 µM each time.
As for `Cc1ccc(C(=O)CC(Cl)=C(Cl)Cl)cc1`, the TGI in the experiment with HOP-92 NSCLC, in the experiment on MDA-MB-435, in the experiment on OVCAR-8 ovarian, in the experiment with MDA-MB-231 breast, with SK-OV-3 ovarian and in the experiment with LOX IMVI melanoma was over 100 µM each time. For the same compound, the TGI in the experiment with A549 NSCLC, with K-562 leukemia, in the experiment on MCF7 breast, with MALME-3M melanoma and in the experiment on SNB-75 CNS was over 100 µM throughout.
Take `CCOC(=O)CCC(NC(=O)c1ccc(CNc2nc3cc(N)cc(N)c3nc2-c2ccccc2)cc1)C(=O)OCC` (configuration not stated): the TGI in the experiment with HOP-92 NSCLC was over 100 µM; with MDA-MB-435, over 86.4 µM; in the experiment with OVCAR-8 ovarian, over 100 µM; with MDA-MB-231 breast, over 68.1 µM; in the experiment on SK-OV-3 ovarian, over 100 µM; in the experiment with LOX IMVI melanoma, over 100 µM. Moreover, the TGI in the experiment with A549 NSCLC was over 100 µM; in the experiment on K-562 leukemia it was over 100 µM; with MCF7 breast, over 100 µM; with MALME-3M melanoma, 35.3 µM; with SNB-75 CNS, over 100 µM.
Take `Cn1c(N2CCCC2)c(C=O)c(=O)n(C)c1=O`: the TGI in the experiment on HOP-92 NSCLC, with MDA-MB-435, with OVCAR-8 ovarian, in the experiment on MDA-MB-231 breast, in the experiment with SK-OV-3 ovarian and in the experiment with LOX IMVI melanoma was over 100 µM throughout. Besides, the TGI is over 100 µM in the experiment with A549 NSCLC; over 100 µM with K-562 leukemia; over 100 µM in the experiment with MCF7 breast; over 100 µM in the experiment with MALME-3M melanoma; 93 µM in the experiment with SNB-75 CNS.
For `COc1ccc(-c2cc(-c3ccc(Nc4ccnc5cc(C(F)(F)F)ccc45)cc3)[nH]c(=O)c2C#N)c2ccccc12`, the TGI in the experiment on HOP-92 NSCLC is over 100 µM; with MDA-MB-435, over 56.1 µM; in the experiment on OVCAR-8 ovarian it was over 100 µM; in the experiment on MDA-MB-231 breast, over 59.8 µM; with SK-OV-3 ovarian, over 100 µM; with LOX IMVI melanoma it was over 49.7 µM. In addition, the TGI in the experiment on A549 NSCLC is over 100 µM; in the experiment with K-562 leukemia, over 100 µM; in the experiment with MCF7 breast, over 100 µM; with MALME-3M melanoma, over 63.2 µM; in the experiment on SNB-75 CNS, 29.9 µM.

Values taken from PubChem BioAssay (NCI).
